Experiment [1] has as its system canonical Wnt pathway (TCF binding sites, TopFlash). Kind of experiment: TopFlash luciferase reporter assay in 293 cells. The class given is cell-based. The settings on record: 293 human kidney epithelial cells; micromolar concentrations; data not shown. As to the method: (§1) Luciferase assay. […] Test compounds were added 24 hrs after transfection. Following incubation for 24 hrs, cells were harvested, and analyzed by the dual luciferase reporter assay system (Promega) using Lumat (Berthold Technologies). Each value was standardized by Renilla luciferase activity.
(§2) The canonical Wnt signal occurs through binding of the Wnt protein to the Frizzled receptor at cell surface. It is followed by inactivation of GSK-3, leading to accumulation of β-catenin in the nucleus that activates the transcription of Wnt target genes in collaboration with TCFs^18,19. Alternatively, Wnt signaling can be activated by direct, intracellular inhibition of the GSK-3 function using specific inhibitors^20. […] First we examined whether mouse and human ESCs were capable of transducing Wnt signaling under the influence of 6-bromoindirubin-3′-oxime. […] We then evaluated expression of β-catenin at the cellular level as a read-out of the activation status of the canonical Wnt pathway in HESCs.
In general terms: Reporter assays use an easily measured gene product as a stand-in for the process of interest.

Experiment [2] has the same test system. The experiment in a line: TopFlash/FopFlash luciferase reporter assay in CJ7 cells (MESCs). Type of experiment: cell-based, mouse. The settings on record: FIG. 2b. As to the method: as §1, §2
A further experiment has as its system cyclin D1. The experiment in a line: cyclin D1 immunofluorescence in HESCs. The class given is cell-based, human. As to conditions: HESCs (BGN2); non-CM; 6-bromoindirubin-3′-oxime 1.0 μM or Wnt3a protein 100 ng; FIG. 7. As to the method:
Immunofluorescence. HESCs were grown in conditioned medium (CM), non-CM, non-CM containing Me 6-bromoindirubin-3′-oxime (1.0 μM), non-CM containing 6-bromoindirubin-3′-oxime (1.0 μM) or non-CM containing recombinant mouse Wnt3a protein (100 ng/ml, R&D systems) for 5 d. Cells were fixed in 4% paraformaldehyde for 20 min at room temperature and incubated overnight at 4° C. with primary antibodies against cyclin D1 (Santa Cruz Technology, Santa Cruz, Calif.). Antigens were localized by using goat anti-rabbit IgG conjugated to Cy3 (Zymed laboratories).

The test system of another experiment is Rex-1 promoter. The experiment in a line: Rex-1 YFP reporter line CJRex-Y (imaging / FACS). Type of experiment: cell-based, mouse. As to conditions: CJRex-Y cells, 5 d. As to the method:
Generation of stable mouse ES lines. CJ7 ES cells were transfected with pRex-1-Venus, pTY or pCAG-HygEGFP by using Lipofectamine 2000 (Invitrogen) followed by G418 (Invitrogen) selection at 200 μg/ml (for CJRex-Y or CJ-TY) or hygromycine (Invitrogen) selection at 600 μg/ml (for CJ-GFP). Two weeks after the drug selection, a number of single colonies were picked up, expanded and used for the further analyses.
FACS analysis of MESCs. We cultured CJRex-Y cells at a low density (500 cells/cm^2) on gelatin-coated 10 cm dishes in mouse ES cell medium alone, medium containing LIF, medium conditioned from wild type L cells or medium conditioned from Wnt3a-L cells (ATCC) for 5 days. The Wnt3a conditioned medium was prepared according to the provider's protocol. Cells were harvested, resuspended in mouse ES medium and subjected to FACS analysis using FACSVantage SE system (BD Biosciences).

Another experiment has as its system H1 cells. Kind of experiment: Differentiation of HESCs into neurons on PA6 stromal cells. Type of experiment: cell-based, human. The settings on record: comparable to conditioned medium-treated cells. From the text:
Differentiation of ES cells into neurons. The PA6 stromal cell line (RIKEN) was used for the co-culture system (Kawasaki et al., 2002, Generation of dopaminergic neurons and pigmented epithelia from primate ES cells by stromal cell-derived inducing activity. Proc Natl Acad Sci USA 99, 1580-1585). H1 cell colonies grown on Matrigel under different conditions for 7 d were harvested and cultured (100˜200 cells/clump, approximately 5 clumps/well of a 12-well plate) on PA6 stromal cells in 90% Knockout-Dulecco's modified Eagle's medium, 10% KSR, 1 mM L-glutamine, 1% non-essential amino acids, 0.1 mM β-mercaptoethanol for 3 weeks as previously described (Sato et al., 2003, Molecular signature of human embryonic stem cells and its comparison with the mouse. Dev Biol 260, 404-413). At the end of the culture period, cells were stained with a neuron-specific antibody, Tuj-1, as shown below. The number of wells containing Tuj-1 positive neurons was determined in each condition in repeated experiments.

Another experiment relates to MESCs. Kind of experiment: Teratoma formation from treated MESCs in syngenic mice. The class given is in vivo, mouse. As to conditions: MESCs grown in 1 μM, subcutaneous injection into syngenic mice. As to the method:
Teratoma formation. We grew CJ-GFP cells at a low density (500 cells/cm^2) on gelatin-coated 10 cm dishes in medium containing 6-bromoindirubin-3′-oxime 1 μM for 7 d, then passaged cells at the same density and cultured under the same condition another 5 d to further enforce differentiation of cells. […] 6-bromoindirubin-3′-oxime-treated cells (approximately 5×10^6 cells/mouse) were subcutaneously injected into the left flank of syngenic 129 background mice. After three to five weeks, the developed teratoma (approximately 20 mm in diameter) was excised, fixed in 4% paraformaldehyde and subjected to hematoxylin and eosin staining for histological examinations.

“Also recorded” adds a separate entry of the source.

From patent publication US20090111177A1, “Maintenance of Embryonic Stem Cells by the GSK-3 Inhibitor 6-Bromoindirubin-3'-Oxime” (THE ROCKEFELLER UNIVERSITY, priority 2003, published 2009) come the findings set out here.

As for `O=C1Nc2cc(Br)ccc2/C1=C1/Nc2ccccc2/C1=N\O` [6-bromoindirubin-3′-oxime], the TopFlash reporter activity result in experiment [1] is on record as “robustly upregulated the reporter activity”; in experiment [2] (CJ7 cells (MESCs)) it was “remarkable increase in TopFlash reporter activity in a dose-dependent manner”. Moreover, the FopFlash reporter activity result in experiment [2] (CJ7 cells, non-responsive mutated binding sites) is recorded as “no substantial change in FopFlash reporter activity”. Also, in the experiment with cyclin D1, the “cyclin D1 expression” value is listed as “upregulated; also recorded: up-regulated cyclin D1 expression”. Moreover, in the experiment with Rex-1 promoter (FIG. 3b), the “colony morphology / cell shape” value is given as “more compact than those observed in LIF-treated cells”. Besides, the “Rex-1 transcriptional (YFP reporter) activity” value in the experiment with Rex-1 promoter (absence of LIF) is “strong transcriptional activity”. Moreover, the “neurogenesis on stromal feeders (Tuj-1)” value in the experiment on H1 cells is “robust neurogenesis”. Also, the “teratoma formation, germ layer derivatives” value in the experiment on MESCs is listed as “generated teratomas consisting of all three germ layer-derived tissues”.
